Assay results published in patent publication US10836732B2, “Compounds for combating arthropods” (priority 2013, dated 2020).

Assays:
Ctenocephalides felis = Ctenocephalides felis - oral test; assay type: in vivo; details: 100 ppm in citrated cattle blood, adult cat fleas, after 2 days
Method: (§1) Solvent: dimethyl sulphoxide
For the purpose of producing an appropriate active ingredient formulation, 10 mg of active ingredient are mixed with 0.5 ml of dimethyl sulphoxide. Dilution with citrated cattle blood gives the desired concentration.
About 20 unfed adult cat fleas (Ctenocephalides felis) are placed into a chamber which is closed at the top and bottom with gauze. A metal cylinder whose bottom end is closed with parafilm is placed onto the chamber. The cylinder contains the blood/active ingredient preparation, which can be imbibed by the fleas through the parafilm membrane.
After 2 days, the kill in % is determined 100% means that all of the fleas have been killed; 0% means that none of the fleas have been killed.

Musca domestica = Musca domestica - test; assay type: in vivo; details: 100 ppm, adult houseflies, after 2 days
Method: as §1
To produce an appropriate active ingredient formulation, 10 mg of active ingredient are mixed with 0.5 ml of dimethyl sulphoxide, and the concentrate is diluted with water to the desired concentration.
Vessels containing a sponge treated with sugar solution and the active ingredient formulation of the desired concentration are populated with 10 adult houseflies (Musca domestica).
After 2 days, the kill in % is determined 100% means that all of the flies have been killed; 0% means that none of the flies have been killed.

SMILES: Cc1cc(C(F)(C(F)(F)F)C(F)(F)F)cc(C)c1-c1cn(-c2ccc(Cl)c(C(=O)NC3CC3)c2)nn1 [I-T48-1, 2-chloro-N-cyclopropyl-5-[4-[2,6-dimethyl-4-[1,2,2,2-tetrafluoro-1-(trifluoromethyl)ethyl]phenyl]triazol-1-yl]benzamide]
- efficacy (kill in %) (Ctenocephalides felis): 100%
- efficacy (kill in %) (Musca domestica): 100%
